Measurements taken from US8809368B2, “Compounds affecting gap junction activity” (Kansas State University Research Foundation, priority 2006, dated 2014).

Assays:
[1] = system: Cx43; experiment: Western blot of Cx43 and phosphoCx43-Ser368 in R28 cells; assay type: cell-based, rat; details: PQ1, CoCl2 or a combination of both
Procedure: (A) About 70% confluent retinal R28 cells were treated with 100, 200 and 500 μM CoCl2 for 24 h with or without the pre-treatment of PQ1 (10 μM, 40 min) in a cell culture chamber (5% CO2, room air, 37° C.). Caspase-3 activation was determined by Western blotting in whole cell homogenates (WCH). (B) HIF1α stabilization was measured in the nuclear extracts (NE) after treatment with 500 μM CoCl2 at different time intervals with or without the pretreatment of PQ1. […] Levels of Cx43 and phosphoCx43-Ser368 are measured in WCH. β-Actin is used as a loading control.
Western blot. Western blotting was performed as described previously. Anti-Cx43 was purchased from Fred Hutchinson cancer research center (# Cx43NT1), anti-HIF1a was purchased from Novus Biologicals (# NB100-105), and anti-caspase-3 (# 9661), phosphor-Cx43 (Ser368) (#3511S) were purchased from Cell Signaling Technology and anti-b-actin was purchased from Sigma (# A5441).
Next, it was determined whether PQ1 inhibition of gap junctions could prevent retinal neurosensory R28 cells from apoptosis using a chemical (CoCl2)-induced ischemia system as our model. […] CoCl2 at 500 μM caused stabilization of HIF1a in the nuclear extracts and this stabilization started as early as three hours after treatment (FIG. 20B). This confirmed induction of hypoxia. […]

[2] = system: T47D cells; experiment: Cell morphology, T47D cells; assay type: cell-based, human; details: varying concentrations, 24 hours
Procedure: Cell Morphology: T47D cells (1000 cells/ml) were seeded in a six-well plate for 24 hours. Next day, cells were dosed with varying concentrations of PQ1 for 24 hours. Cells were observed under a microscope before and after the experiment. No effect seen on the morphology of cells in the presence of PQ1.

[3] = MTT assay, cell proliferation and viability, T47D cells; assay type: cell-based, human; details: human, T47D breast cancer cells
Procedure: (§1) T47D breast cancer cells were treated with various concentrations of PQ1 for 24 hours. MTT assay was performed with adherent cell cultures using a culture medium free of phenol red and of serum. Solution containing MTT was metabolized by the cells (incubation period 3 hours). After solubilization of the MTT crystals with the solubilization solution MTT, the amount of dye was measured spectrophotometrically at 540 nm.
(§2) MTT assay: This assay is done to measure cell proliferation and viability. Yellow MTT (3-(4,5-Dimethylthiazol-2-yl)-2,5-diphenyltetrazolium bromide, a tetrazole) is reduced to purple crystals, formazan in the mitochondria of living cells. A solubilization solution is added to dissolve the insoluble purple formazan product into a colored solution. The absorbance of this colored solution can be measured by a spectrophotometer. T47 D cells (20,000) were grown in 96-well plate and dosed with 10, 100, 200, 500 nM of PQ1 compound in 100 μl of complete media for 24 hours. MTT (20 μl) was added to the cells and purple formazan crystals were observed after 90 minutes. A solubilization solution (0.35 N HCl) was added to dissolve the formazan and the absorbance was measured at 595 nm wavelength with a background wavelength 690 nm by a spectrophotometer.
(§3) The cytotoxicity of PQ1 in MEC and T47D cells using MTT assay was also determined. Cells were treated with 10, 100, 200, and 500 nM PQ1 for 24 hours. MTT assay was performed according to the manufacture's recommendations. A 200 nM PQ1 has 67% cell viability compared to controls (FIG. 16). Treatments of 100 and 200 nM PQ1 have 95% and 103% MEC cell viability compared to control. However, both MEC and T47D cells decrease cell viability to 50% and 65% at 1 μM PQ1, respectively. Thus, 100-200 nM of PQ1 is sufficient to enhance GJIC activity.
(§4) MTT assay. […] After solubilization of the MTT crystals with the solubilization solution MTT, the amount of dye will be measured spectrophotometrically at 540 nm.

[4] = system: T47D cells; experiment: as above; assay type: cell-based, human; details: 200 nM, 24 hours
Procedure: as §1, §2, §3, §4

[5] = system: MEC; experiment: Soft agar colony growth, MEC; assay type: cell-based, human; details: 100 nM
Procedure: Various oncogenes (e.g. ras, raf, neu, src, mos) down-regulate GJIC while several tumor suppressor genes can up-regulate GJIC. […] Cells were grown in soft agar to assess their capacity for anchorage-independent growth, which is a key feature of cell transformation due to the importance of cell-cell and cell-matrix based tumor suppression. MEC and T47D cells were treated with 10, 100, 1000, and 10000 nM PQ1 for 7 days. A graphical presentation of three experiment results is presented in log scale of PQ1 concentration. […] A 100 nM PQ1 inhibits 66% of colony growth compared to controls, without PQ1 treatment or 100 nM succinic acid.
Colony Growth Using Soft Agar. Cells were treated with 0, 10, 100, 200 and 500 nM PQ1 for 7 days. Base agar plates were prepared containing 0.8% agar and 0.4% agar in Ham's F12. Cells (5×10^4 cells/33 mm^2 well) were suspended in 100 μl of Ham's F12 with 0.4% agar and plated. These plates were maintained at 37° C. for 7 days and examined for the presence of colonies. Individual colonies of 50 μm or greater were examined.

[6] = Solubility in water; assay type: physicochemical; details: succinic acid salt

## COc1cc(NCCCN)c2nccc(C)c2c1Oc1cccc(C(F)(F)F)c1.O=C(O)CCC(=O)O [PQ1, 6-Methoxy-8-[(3-aminopropyl)amino]-4-methyl-5-(3-trifluoromethylphenyloxy) quinoline succinic acid]
[1]
  Cx43 gap junction protein levels: did not cause any change
  phosphorylation of Cx43 at residue ser368: did not cause any change
[2]
  cell morphology: No effect
[3]; 200 nM, 24 hours, read-out: cell viability compared to controls
  viability at 24 h, 0.2 µM: 67%
[3]; 1 μM
  viability at 24 h, 1 µM: 65%
[4]
  decrease in cell proliferation: 40%
[5]
  colony growth: no effect
[6]
  solubility in water: soluble in water
